# According to patent US20070149401A1, “METHODS AND COMPOSITION FOR GROWTH ENGINEERING AND DISEASE CONTROL” (Syngenta Crop Protection, Inc., priority 2005, published 2007):
# Key:
# Barley [1] = assay: Barley emergence after PGR seed treatments; format: in vivo
# Procedure: (§1) Barley seeds were treated with paclobutrazol (alone) and with paclobutrazol in combination with gibberrelic acid at varying rates. The resulting plants were then additionally treated with foliar applications of trinexapac plant growth regulator (applied as Palisade™ 128 and Palisade™ 150) at the Feekes 6 timing. Emergence and percent lodging were measured against the check. The results are found in Tables BB and CC.
# Colorado Potato Beetle = assay: Insect control: Colorado Potato Beetle count on plants from treated seed; format: in vivo
# Text: Presence of Colorado Potato Beetle was studied in plants resulting from the seed treatments with paclobutrazol.
# Barley [2] = assay: Barley lodging control; format: in vivo
# Procedure: as §1
# Xanthamonas spp. = assay: Xanthamonas infection of tomato transplants; format: in vivo; conditions: versus fungicidal mixture alone
# Text: Disease resistance in the post-emergent plant has also been shown through use of plant growth regulators as a seed treatment. A set of tomato transplants from seed treated with paclobutrazol and a fungicidal mixture of fludioxonil and mefenoxam was inoculated with Xanthamonas spp. 18 days after transplanting. […] The antibacterial activity of the PGR-treated plants is significant at several rates of application.
# [3] = system: Variety Florida 47 tomatoe; assay: Water use efficiency: cumulative water used by tomato transplants; format: in vivo; conditions: for Cumulative Water Used (ml/6 plants), projected through 6th week: Table H
# Procedure: Variety Florida 47 tomatoe seeds were treated and the plants tested with respect to the cumulative amount of water used to sustain the plants from seeding through growth.
# Using the data obtained from these trials, and empirical calculations, a tomato transplant business could save approximately 700 gallons of water while producing 27,000 transplants.
# 20 tables/greenhouse×28 flats/table×48 plants/flat×0.6 liters/6 plants×gal/3.75 1=710 gallons of water.
# vine ripe tomatoes = assay: Yields of vine ripe tomatoes; format: in vivo, tomato
# Text: Table O also illustrates the safening effect of the PGR on the seed to later foliar application of the plant activator. Without the PBZ on the seed, the yield decreases from 119 to 96.
smiles,measurement,setting,value
"CC(C)(C)[C@@H](O)[C@@H](Cc1ccc(Cl)cc1)n1cncn1 (racemic) [PBZ, paclobutrazol]","Emergence, 8 Days after planting (no. emerged-6 ft row)",Barley [1]; listed as PBZ rate (1),68.2
same,"Emergence, 8 Days after planting (no. emerged-6 ft row)",Barley [1]; listed as PBZ rate (3),38.7
same,"Emergence, 8 Days after planting (no. emerged-6 ft row)",Barley [1]; listed as PBZ ratge (2),36.3
same,"Emergence, 14 Days after planting (no. emerged-6 ft row)",Barley [1]; listed as PBZ rate (1),113.2
same,"Emergence, 14 Days after planting (no. emerged-6 ft row)",Barley [1]; listed as PBZ rate (3),114.5
same,"Emergence, 14 Days after planting (no. emerged-6 ft row)",Barley [1]; listed as PBZ ratge (2),106.3
same,No. Potato Beetle Adults/plant,Colorado Potato Beetle,0.8
same,% Lodging,"Barley [2]; 7 Jun, listed as PBZ rate (1)",85.8%
same,% Lodging,"Barley [2]; 7 Jun, listed as PBZ rate (3)",72.5%
same,% Lodging,"Barley [2]; 7 Jun, listed as PBZ ratge (2)",68.3%
same,% Lodging,"Barley [2]; 11 Jun, listed as PBZ rate (1)",29.2%
same,% Lodging,"Barley [2]; 11 Jun, listed as PBZ rate (3)",9.2%
same,% Lodging,"Barley [2]; 11 Jun, listed as PBZ ratge (2)",16.8%
same,% Lodging,"Barley [2]; 18 Jun, listed as PBZ rate (1)",31.7%
same,% Lodging,"Barley [2]; 18 Jun, listed as PBZ rate (3)",20%
same,% Lodging,"Barley [2]; 18 Jun, listed as PBZ ratge (2)",23.3%
same,% Lodging,Barley [2]; 19 May,0%
same,resistance against xanthamonas infection (in words),Xanthamonas spp.,greater resistance
same,"Cumulative Water Used (ml/6 plants), projected through 6th week",[3]; 1-Aug,883 ml/6 plants
same,"Cumulative Water Used (ml/6 plants), projected through 6th week",[3]; 21-Jul,113 ml/6 plants
same,"Cumulative Water Used (ml/6 plants), projected through 6th week",[3]; 22-Jul,172 ml/6 plants
same,"Cumulative Water Used (ml/6 plants), projected through 6th week",[3]; 23-Jul,259 ml/6 plants
same,"Cumulative Water Used (ml/6 plants), projected through 6th week",[3]; 25-Jul,339 ml/6 plants
same,"Cumulative Water Used (ml/6 plants), projected through 6th week",[3]; 26-Jul,423.17 ml/6 plants
same,"Cumulative Water Used (ml/6 plants), projected through 6th week",[3]; 27-Jul,506 ml/6 plants
same,"Cumulative Water Used (ml/6 plants), projected through 6th week",[3]; 28-Jul,575 ml/6 plants
same,"Cumulative Water Used (ml/6 plants), projected through 6th week",[3]; 29-Jul,649 ml/6 plants
same,"Cumulative Water Used (ml/6 plants), projected through 6th week",[3]; 31-Jul,790 ml/6 plants
same,water use (in words),[3]; during transplant production,decreased water use
same,yield (in words),"vine ripe tomatoes; PBZ on the seed, later foliar plant activator",substantially higher
"CSC(=O)c1cccc2nnsc12 [ASM, acibenzolar-S-methyl]",Cumulative Tomato Yields No. Fruit/Plot (12 plants),"vine ripe tomatoes; 29-Aug, averages of 5 programs (ASM) and 3 programs (ASM + PBZ), PBZ on seed, ASM foliar",96
O=C1CC(C(=O)O)CC(=O)C1=C(O)C1CC1 (stereo not shown) [Trinexapac [128] Feekes 6],% Lodging,Barley [2]; 7 Jun,7.5%
same,% Lodging,"Barley [2]; 7 Jun, listed as Trinexapac [128] Feekes 6 + 7 days",79.2%
same,% Lodging,Barley [2]; 11 Jun,0.5%
same,% Lodging,"Barley [2]; 11 Jun, listed as Trinexapac [128] Feekes 6 + 7 days",17.2%
same,% Lodging,Barley [2]; 18 Jun,0%
same,% Lodging,"Barley [2]; 18 Jun, listed as Trinexapac [128] Feekes 6 + 7 days",1.7%
same,% Lodging,Barley [2]; 19 May,8.3%
same,% Lodging,"Barley [2]; 19 May, listed as Trinexapac [128] Feekes 6 + 7 days",7.5%
O=C1CC(C(=O)O)CC(=O)C1=C(O)C1CC1 (stereo not shown) [Trinexapac [150] Feekes 6],% Lodging,Barley [2]; 7 Jun,0.2%
same,% Lodging,Barley [2]; 11 Jun,0%
same,% Lodging,Barley [2]; 18 Jun,0%
same,% Lodging,Barley [2]; 19 May,11.7%
